In patent US6664088B2, “Production of vanillin” (Plant Bioscience Limited, priority 1996, dated 2003):
Where two headings read alike, the source gives them in different places. Values belong to the compound of their own block, whether it stands above or below them.

Experiments:
[1] = molecular target: T1, trans-feruloyl SCoA hydratase/aldol cleavage enzyme (Pseudomonas fluorescens, UniProt O69762); experiment: trans-feruloyl SCoA hydratase/aldol cleavage enzyme activity, reaction products by HPLC; format: biochemical; conditions: 30° C., 0.4 mM substrate, 2.8 μg enzyme partially purified by Mono-Q and Mono-P
T1 construct: Purification from cells of Ps. fluorescens biovar V, strain AN103, was; endogenous in cells; host or cells: Ps. fluorescens biovar; V strain AN103 grown on trans-ferulate (crude extract, then Mono Q, Mono P, PhenylSuperose); also crude extract of E. coli JM109(DE3) with the gene in pSP72
Description: At each stage of purification, active fractions were detected by a micro-adaptation of the assay with HMPHP SCoA described above (Example 2); reactions were performed in 100 μl of reaction mixture for ca. 4 min at room temperature in microtitre wells and absorbance was then measured in an MR 5000 microtitre plate reader (Dynatech, Guernsey, Channel Islands), equipped with a 340 nm filter. The activity of the pooled fractions was measured using HPLC to determine the reaction products of both HMPHP SCoA, (0.4 mM) and trans-feruloyl SCoA (0.28 mM) as substrates. […] The proportionality of the reactions with time and with quantity of enzyme was established in preliminary determinations.
E. coli cells were grown at 37° C. for 3 h in 50 ml of L medium, containing ampicillin (50 μg/ml) with and without induction by IPTG. Extracts were prepared as described above in Example 2 for Ps. fluorescens AN103, but without centrifugation. The crude extract was used for assay. Enzyme activity with both HMPHP SCoA and trans-feruloyl ScoA was determined as described above in Example 4 using HPLC to determine the reaction products. […] There was no activity with either trans-feruloyl SCoA or HMPHP SCoA in extracts of an unmanipulated E. coli strain, whether induced or not. In the manipulated strain E. coli 1039 that expresses the Pseudomonas gene the specific activity was slightly lower in the exLract made following induction than in that made from uninduced bacteria. […] It was not possible to detect expression of the 31 kD protein visually on Coomassie-stained, one-dimensional SDS gels because of its co-migration with the strongly expressed β-lactamase encoded by the vector ampicillin resistance marker.

[2] = system: enzyme activities I, II and III from Ps. fluorescens biovar V, strain AN103; experiment: Use of cinnamates as substrates by enzyme activities I, II and III; format: biochemical, Pseudomonas fluorescens; conditions: AN103 enzymes
[3] = system: Ps. fluorescens biovar. V, strain AN103; experiment: Relative growth of strain AN103 on a range of carbon substrates (absorbance at 600 nm); format: cell-based, Pseudomonas fluorescens; conditions: for activity at 10000 µM: read-out: Relative Growth (%)
Description: KH2PO4, 5 g; […] FeSO4, 0.5 mg; CaCl2, 0.5 mg; MnCl2.5H2O, 5 mg; (NH4)6Mo2O7.4H2O, 1.1 mg; MgSO4, 5 mg; EDTA, 50 mg; […] The pH was 7.0. Carbon sources were included as indicated. […] Growth was monitored by measuring absorbance at 550 or 600 nm. [table]

[4] = system: cell-free extract of strain AN103; experiment: Incubation of CoASH thioesters with cell-free extract; format: biochemical, Pseudomonas fluorescens
Description: (§1) Cell-free extracts were routinely incubated at 30° C. and pH 7.5 in a reaction mixture (1 ml) containing 90 mM Tris HCl buffer and 2.5 mM MgCl2, together with (as appropriate) 0.5 mM trans-ferulic acid, 0.2 mM CoASH (Li salt) and 2.5 mM ATP. This complete reaction mixture constituted an assay for trans-ferulate: CoASH ligase, where the initial increase in absorbance at 345 nm was monitored against a blank reaction mixture from which CoASH was omitted. Incubations with HMPHP SCoA (generally 0.4 mM) were performed similarly, but with the omission of trans-ferulic acid, CoASH and ATP.
Metabolites of trans-ferulic acid, including the CoASH thioesters, were analysed and quantitated by HPLC using a Lichrosorb RP-18 column (20 cm×4.6 mm; Capital HPLC, Broxburn, West Lothian, UK) with a multiphasic gradient; solvent “A” was 20 mM NaOAc, adjusted to pH 6.0 and solvent“B” was MeOH; the flow rate was 1.2 ml/min; the proportion of solvent “B” rose linearly from 0% at 0 min to 10% at 15 min and thence to 50% at 40 min and 70% at 45 min, finally decreasing to 0% at 50 min. Detection was with a Spectra Focus detector (Thermo Separation Products, Stone, Staffs. UK), which permitted u/v spectral analysis of each eluting component.

[5] = molecular target: T2, Vanillin: NAD+ oxidoreductase (Pseudomonas fluorescens, UniProt O69763); experiment: Vanillin:NAD+ oxidoreductase assay, decrease in absorbance at 340 nm; format: biochemical; conditions: gene expressed in E. coli strain DH5 from pUC18
T2 construct: endogenous in cells; host or cells: Ps. fluorescens AN103 / van 1 / van 10 cell-free extracts; also E. coli DH5 carrying pUC18 with the full-length ORF
Description: Vanillin: NAD^+ oxidoreductase was assayed at 30° C. and pH 7.0 by monitoring the initial decrease in absorbance at 340 nm against a blank cuvette from which NAD^+ was omitted. Because of the similarity in extinction coefficient at 340 nm for vanillin and for NADH, the sensitivity of the assay was increased by catalysing the regeneration of NADH to NAD^+ by providing lactate dehydrogenase and pyruvate. Reaction mixtures contained, in 1 ml volume, 75 mM KPi buffer, pH 7.0, 0.125 mM vanillin, 1.2 mM Na pyruvate, lactate dehydrogenase (rabbit muscle), 1.1 U and NAD^+, 0.5 mM.
In order to confirm the function of this gene, expression was determined in E. coli strain DH5, which contained the vector pUC18 into which the full-length open reading frame had been inserted such that expression was from the lac promoter on the vector. Vanillin: NAD^+ oxidoreductase activity was confirmed and was absent from a control strain bearing the unmodified pUC 18 vector. Using the enzyme assay described in Example 2, activity with vanillin as substrate was determined as 3.0 nkat/mg of protein; activity with salicylaldehyde was 2.8 nkat/mg.

[6] = system: trans-ferulate: CoASH ligase; experiment: trans-ferulate:CoASH ligase assay, initial increase in absorbance at 345 nm; format: biochemical, Pseudomonas fluorescens; conditions: crude extracts of Ps. fluorescens AN103; initial rate at absorbance maximum of the SCoA thioester
Description: as §1

[7] = substrate 10 mM on MM Medium, 48 h at 25° C., absorbance at 600 nm
[8] = Pseudomonas fluorescens, substrate 10 mM on MM Medium, 48 h at 25° C., absorbance at 600 nm

T1 sequence (O69762 2-276): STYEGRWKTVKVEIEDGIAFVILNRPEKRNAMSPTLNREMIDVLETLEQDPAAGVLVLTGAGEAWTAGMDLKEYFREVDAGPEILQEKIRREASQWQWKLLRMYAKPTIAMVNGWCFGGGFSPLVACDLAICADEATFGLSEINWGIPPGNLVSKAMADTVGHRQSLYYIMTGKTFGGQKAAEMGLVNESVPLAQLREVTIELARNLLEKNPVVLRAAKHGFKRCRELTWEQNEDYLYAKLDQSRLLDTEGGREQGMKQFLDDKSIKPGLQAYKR
T2 sequence (O69763 whole entry): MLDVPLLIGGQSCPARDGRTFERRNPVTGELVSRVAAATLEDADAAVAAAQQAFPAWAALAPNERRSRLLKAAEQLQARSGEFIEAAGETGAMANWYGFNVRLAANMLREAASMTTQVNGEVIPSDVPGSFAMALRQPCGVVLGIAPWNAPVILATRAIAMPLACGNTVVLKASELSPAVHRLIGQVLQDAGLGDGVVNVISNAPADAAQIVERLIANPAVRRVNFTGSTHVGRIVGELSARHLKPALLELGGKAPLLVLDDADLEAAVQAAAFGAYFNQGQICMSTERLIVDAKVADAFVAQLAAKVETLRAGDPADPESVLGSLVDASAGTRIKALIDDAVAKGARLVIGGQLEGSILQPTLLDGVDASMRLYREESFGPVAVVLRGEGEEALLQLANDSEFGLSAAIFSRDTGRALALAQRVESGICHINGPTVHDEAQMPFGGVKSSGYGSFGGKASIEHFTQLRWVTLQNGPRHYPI

Structure (SMILES): CC(C)(COP(=O)(O)OP(=O)(O)OC[C@H]1O[C@@H](n2cnc3c(N)ncnc32)[C@H](O)[C@@H]1OP(=O)(O)O)[C@@H](O)C(=O)NCCC(=O)NCCSC(=O)/C=C/c1ccc(O)c(O)c1 (relative stereo) [Caffeoyl SCoA, trans-caffeoyl SCoA]
Activity, utilisation of trans-p-hydroxycinnamoyl SCoA thioester [1]: 0.36 nkat/mg of protein

Structure (SMILES): COc1cc(C=CC(=O)SCCNC(=O)CCNC(=O)[C@H](O)C(C)(C)COP(=O)(O)OP(=O)(O)OC[C@H]2O[C@@H](n3cnc4c(N)ncnc43)[C@H](O)[C@@H]2OP(=O)(O)O)ccc1O (relative stereo) [Feruloyl SCoA, trans-feruloyl SCoA]
Activity, utilisation of trans-p-hydroxycinnamoyl SCoA thioester [1]: 0.60 nkat/mg of protein

Structure (SMILES): CC(C)(COP(=O)(O)OP(=O)(O)OC[C@H]1O[C@@H](n2cnc3c(N)ncnc32)[C@H](O)[C@@H]1OP(=O)(O)O)[C@@H](O)C(=O)NCCC(=O)NCCSC(=O)/C=C/c1ccc(O)cc1 (relative stereo) [p-Coumaroyl SCoA, trans-4-coumaroyl SCoA]
Activity, utilisation of trans-p-hydroxycinnamoyl SCoA thioester [1]: 0.72 nkat/mg of protein

Structure (SMILES): O=C(O)/C=C/c1ccc2c(c1)OCO2 [3,4-methylenedioxy-trans-cinnamate]
Use as substrate by enzyme activities I, II and III [2]: poor substrates

Structure (SMILES): CC(=O)O [Acetate]
Relative Growth (%) [3, 7]: 47%

Structure (SMILES): O=C(O)/C=C/c1ccc(O)c(O)c1 [Caffeic acid, 3,4-dihydroxy-trans-cinnamate]
activity at 10000 µM [3, 8]: 79%

Use as substrate by enzyme activities I, II and III [2]: poor substrates
Structure (SMILES): O=C(O)C=Cc1ccccc1 [Cinnamic acid]
activity at 10000 µM [3, 8]: 0%

Structure (SMILES): COc1cc(/C=C/C(=O)O)ccc1O [Ferulic acid, 4-hydroxy-3-methoxy-trans-cinnamate]
activity at 10000 µM [3, 8]: 100%

Structure (SMILES): COc1cc(C(O)CC(=O)SCCNC(=O)CCNC(=O)[C@H](O)C(C)(C)COP(=O)(O)OP(=O)(O)OC[C@H]2O[C@@H](n3cnc4c(N)ncnc43)[C@H](O)[C@@H]2OP(=O)(O)O)ccc1O (stereo partly drawn) [HMPHP SCoA, 4-hydroxy-3-methoxyphenyl-β-hydroxypropionyl SCoA]
Metabolism by cell-free extract ([4]; incubated with cell-free extract, absence of NAD+): converted rapidly to acetyl SCoA and vanillin, in equimolar proportions

Structure (SMILES): CO [Methanol]
activity at 10000 µM ([3]; Pseudomonas fluorescens, 48 h): 0%

Structure (SMILES): O=C(O)c1ccc(O)c(O)c1 [Protocatechuic acid]
activity at 10000 µM ([3]; Pseudomonas fluorescens, 48 h): 77%

Structure (SMILES): O=Cc1ccc(O)c(O)c1 [Protocatechuic aldehyde]
Relative Growth (%) [3, 7]: 0%

Structure (SMILES): COc1cc(/C=C/C(=O)O)cc(OC)c1O [Sinapic acid]
activity at 10000 µM [3, 8]: 0%

Structure (SMILES): COc1cc(C(=O)O)ccc1O [Vanillic acid]
activity at 10000 µM [3, 8]: 140%

Structure (SMILES): COc1cc(C=O)ccc1O [Vanillin, 4-hydroxy-3-methoxybenzaldehyde]
activity at 1000 µM ([3]; Pseudomonas fluorescens, vanillin 1 mM on MM Medium, 48 h at 25° C., absorbance at 600 nm): < 100% | Effect on growth of strain AN103 ([3]; concentrations higher than the low concentrations (<1 mM)): growth-inhibitory | Activity as substrate of vanillin:NAD+ oxidoreductase [5]: 3.0 nkat/mg of protein

Structure (SMILES): O=C(O)/C=C/c1ccc(O)cc1 [p-Coumarate, 4-hydroxy-trans-cinnamate]
Use as substrate by enzyme activities I, II and III [2]: reasonable efficiency | Activity, formation of CoASH thioester [6]: 0.37 nkat/mg protein

Structure (SMILES): O=Cc1ccccc1O [salicylaldehyde]
Activity as substrate of vanillin:NAD+ oxidoreductase [5]: 2.8 nkat/mg

Structure (SMILES): COc1cc(C(=O)SCCNC(=O)CCNC(=O)[C@H](O)C(C)(C)COP(=O)(O)OP(=O)(O)OC[C@H]2O[C@@H](n3cnc4c(N)ncnc43)[C@H](O)[C@@H]2OP(=O)(O)O)ccc1O [vanilloyl SCoA, 4hydroxy-3-methoxybenzoyl SCoA]
Metabolism to vanillin by cell-free extracts ([4]; in the presence of NADH): not to be metabolised to vanillin
